Results: patent US7855228B2, “Antibiotics targeting MreB” (The Board of Trustees of the Leland Stamford Junior …, priority 2005, dated 2010)
Values after ≈ are worked out from the molar mass of the structure shown. Where two headings read alike, the source gives them in different places.

Tests used:
GFP-MreB [1] = target: T1, GFP-MreB (Caulobacter vibrioides, UniProt A0A0H3C7V4, T167A); test: GFP-MreB localization; type: cell-based, Caulobacter crescentus; conditions: 10 μg/ml; A22-resistant strain
T1 construct: expressed in transfected cells; host or cells: Caulobacter crescentus CB15N derivative, xylose-inducible Pxyl:gfp-mreB
Experimental: (§1) A22 Rapidly and Reversibly Delocalizes GFP-MreB. During the Caulobacter cell cycle, MreB forms a lengthwise spiral in swarmer cells and stalked cells. It then appears to condense into an increasingly tight ring positioned at the future site of cell division. When cytokinesis initiates, this ring is replaced by a lengthwise spiral, such that upon cell division each daughter cell inherits a fully expanded spiral. […] Since 10 μg/ml of A22 strongly delocalizes GFP-MreB and blocks cell division without completely inhibiting cell growth, we have chosen to focus most of our subsequent A22 studies on this concentration.
(§2) The onset of A22's effect on GFP-MreB is very rapid: within 1 min the GFP-MreB already delocalized (FIG. 4B). A22's effect on GFP-MreB is also rapidly reversible. Diluting the A22 concentration of cells treated with A22 for 1 hr by mounting them on pads lacking A22 leads to a full recovery of MreB localization within 1 min (FIG. 4C). GFP-MreB was monitored in the same cells before, during, and after A22 treatment by timelapse imaging cells in a flow chamber that allows A22 to be washed in and out (FIGS. 4D-4F). […] Cells generally retained a memory of the MreB structure present before A22 treatment (FIGS. […]). Cells with rings recovered rings, cells with spirals recovered spirals, and cells with partially compacted rings recovered partially compacted rings. These findings are consistent with MreB's localization being determined by extrinsic factors regulated by the cell cycle state, rather than an intrinsic MreB localization cycle.
(§3) We constructed a fusion of the most common A22-resistant mreB missense mutation (T158A) to GFP and asked if the cellular organization of this MreB mutant is maintained in 10 μg/ml of A22. This fusion was expressed in the corresponding A22-resistant strain, producing merodiploid cells containing both GFP-tagged and -untagged mutated mreB, but no wild-type mreB. […] Since this mutation in the MreB ATP binding pocket perturbs MreB dynamic localization, nucleotide hydrolysis may play a role in regulating MreB dynamics.
(§4) Microscopy and Timelapse Imaging. All experiments other than the A22 flow-cell analysis were performed by mounting the samples on 1% agarose pads as described, with the appropriate concentration of A22 added to the agarose. The rates of origin-distal locus segregation were determined by inducing PxyI:lacI:cfp expression with 0.03% xylose for 75 min, isolating swarmer cells, and growing the swarmer cells in M2G liquid medium for 50 min. After 50 min, 10 μg/ml of A22 was added to these liquid cultures, they were mounted onto 1% M2G agarose pads containing 10 μg/ml A22, and a phase and CFP fluorescence image was captured every 2 min for 60 min. The images were analyzed by previously described software to determine the average position and rate of movement of the observed foci.
(§5) The A22 flow-cell treatment timelapse images were performed on PxyI:gfp-mreB cells induced for 2 hr with 0.03% xylose. These cells were adhered to polylysine-coated cover slips. The cover slips were then adhered to microscope slides with two parallel strips of double-sided tape (3M), leaving a central channel. An excess of medium containing 0 or 10 μg/ml A22 was pipetted onto one opening of this channel and wicked through by placing a tissue (VWR) on the other end. Images were collected every 30 s.

GFP-MreB [2] = target: T2, GFP-MreB (Caulobacter vibrioides, UniProt A0A0H3C7V4); test: GFP-MreB localization; type: cell-based, Caulobacter crescentus
T2 construct: expressed in transfected cells; host or cells: Caulobacter crescentus CB15N derivative, xylose-inducible Pxyl:gfp-mreB
Experimental: as §1, §2, §3, §4, §5

[3] = system: E. coli K-12 strains (ponB, mreB alleles); test: MICs of mecillinam and A22 for E. coli K-12 strains; type: cell-based; conditions: for MIC: Escherichia coli
Experimental: Determination of MIC Minimal inhibitory concentrations (MICs) were determined using a standard 2-fold serial dilution format on L agar plates. Ten microliters of stationary culture diluted in 0.85% NaCl to 10^6 cells/ml were spotted on per plate. […] MICs were also determined on Mueller Hinton agar plates (0.2% beef extract, 1.75% acid digest of casein, 0.15% soluble starch, 1.5% agar, pH 7.3).

E. coli MG1655 = test: Microscopic observation of cell shape; type: cell-based; conditions: for Effect on E. coli cell morphology (in words): 3×MIC or 300 μg/ml, 16 hrs
How it was run: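 E. coli K-12 MG1655 grown in Lennox broth with 0.1% glucose (pH 7.2), exposed to compound, methanol-fixed 5 min and examined by differential interference contrast microscopy. Anucleate cells scored after DAPI staining (5 μg/ml) using combined fluorescence phase-contrast.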

HoIB-GFP = HoIB-GFP (replisome) localization; type: cell-based, Caulobacter crescentus; conditions: 1 hr treatment
Experimental: To assess the ability of these cells to assemble a replisome at the replication origins, A22 was administered to cells expressing a fusion of GFP to the HoIB subunit of DNA polymerase.

T2 sequence (A0A0H3C7V4 whole entry): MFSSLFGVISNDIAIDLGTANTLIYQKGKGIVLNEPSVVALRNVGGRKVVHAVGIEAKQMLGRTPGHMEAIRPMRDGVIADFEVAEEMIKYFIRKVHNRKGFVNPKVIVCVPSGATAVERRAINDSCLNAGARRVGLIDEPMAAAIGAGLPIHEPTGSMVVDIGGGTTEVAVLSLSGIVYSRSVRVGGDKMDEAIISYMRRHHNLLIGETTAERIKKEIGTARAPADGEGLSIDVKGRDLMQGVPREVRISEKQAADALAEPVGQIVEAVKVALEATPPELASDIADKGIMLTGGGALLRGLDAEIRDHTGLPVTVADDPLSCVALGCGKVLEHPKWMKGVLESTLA
T1 sequence (A0A0H3C7V4 whole entry T167A): as the sequence (A0A0H3C7V4 whole entry) above, with T167A counted along it

With `N=C(N)SCc1ccc(Cl)c(Cl)c1` [Compound 1, S-(3,4-dichlorobenzyl)isothiourea] the “Localization of mutated (T158A) GFP-MreB” value (GFP-MreB [1]) was “completely unaffected”, the “GFP-MreB localization (puncta and bands)” value (GFP-MreB [2]; 1 μg/ml or less) was “largely maintained” and the “Onset of GFP-MreB delocalization” value (GFP-MreB [2]; 10 μg/ml) was at most 1 min. For the same compound, the GFP-MreB localization (GFP-MreB [2]; 10 or 100 μg/ml) was “completely disrupted this GFP-MreB localization”, the “Full recovery of MreB localization after diluting A22” value (GFP-MreB [2]; cells treated 1 hr, mounted on pads lacking A22) was at most 1 min and the MIC ([3]; read-out: MICs, strain JA221 (ponB −, mreB221)) was 100 µg/mL (≈ 425 µM). It also gave an MIC ([3]; read-out: MICs, strain JE1011 (ponB +, mreB +)) of 6.25 µg/mL (≈ 26.6 µM), an MIC ([3]; read-out: MICs, strain JM109/pMW218 (ponB +, mreB +/−)) of 6.25 µg/mL (≈ 26.6 µM) and an MIC ([3]; read-out: MICs, strain JM109/pMreB1 (ponB +, mreB +/+)) of 25 µg/mL (≈ 106 µM). The MIC ([3]; read-out: MICs, strain JM109/pMreB221 (ponB +, mreB +/mreB221)) was 100 µg/mL (≈ 425 µM), the MIC ([3]; read-out: MICs, strain JST975 (ponB −, mreB +)) was 1.6 µg/mL (≈ 6.8 µM) and the MIC ([3]; read-out: MICs, strain JSTA220 (ponB −, mreB +)) was 3.12 µg/mL (≈ 13.3 µM). The MIC ([3]; read-out: MICs, strain JSTA221 (ponB −, mreB221)) was 100 µg/mL (≈ 425 µM), the MIC ([3]; read-out: MICs, strain WA220 (ponB +, mreB +)) was 6.25 µg/mL (≈ 26.6 µM) and the MIC ([3]; read-out: MICs, strain WA221 (ponB +, mreB221)) was over 100 µg/mL. The MICs ([3]; strain JST975 (ponB −, mreB +), listed as A22) was 3.125 µg/mL, the “Effect on E. coli cell morphology (in words)” value (E. coli MG1655; 30° C.) was “induced a spherical cell shape” and the “Effect on E. coli cell morphology (in words)” value (E. coli MG1655; 30° C., listed as A22) was “induced spherical cells”. For the same compound, the Shape (E. coli MG1655; E. coli MG1655 treated at 3×MIC (*), 30° C., 16 h) was “Sphere*”, the Shape (E. coli MG1655; Example 2, methods as in Example 1) was “Sphere” and the HoIB-GFP localization (HoIB-GFP) was “no effect on HoIB-GFP localization”.
